Laboratory results published in ChEMBL document CHEMBL6087395, “NGT: Generative AI with Synthesizability Guarantees Discovers MC2R Inhibitors from a Tera-Scale Virtual Screen” (J Med Chem, 2024).

Columns and labels:
[1] = Antagonist activity at human MC2 receptor expressed in HEK293 cells assessed as inhibition of ACTH-induced cAMP accumulation measured after 70 mins incubation by fluorescence analysis; details: HEK293, 70 min
Melanocortin receptor 3 = Melanocortin receptor 3 (Homo sapiens, UniProt P41968); test: Antagonist activity at human MC3 receptor expressed in HEK293 cells assessed as inhibition of ACTH-induced cAMP accumulation measured after 70 mins incubation by fluorescence analysis; type: functional, cell-based
Sequence of Melanocortin receptor 3 (P41968 whole entry): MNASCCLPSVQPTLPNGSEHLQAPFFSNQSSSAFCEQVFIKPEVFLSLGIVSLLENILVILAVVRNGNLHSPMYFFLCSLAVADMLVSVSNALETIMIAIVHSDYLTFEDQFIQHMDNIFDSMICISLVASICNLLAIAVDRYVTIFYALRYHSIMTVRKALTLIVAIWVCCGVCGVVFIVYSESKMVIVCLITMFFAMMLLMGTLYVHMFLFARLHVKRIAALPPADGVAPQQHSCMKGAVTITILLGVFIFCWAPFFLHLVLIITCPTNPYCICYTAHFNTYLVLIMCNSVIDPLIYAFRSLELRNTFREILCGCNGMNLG

Melanocortin receptor 4 = Melanocortin receptor 4 (Homo sapiens, UniProt P32245); test: Antagonist activity at human MC4 receptor expressed in HEK293 cells assessed as inhibition of ACTH-induced cAMP accumulation measured after 70 mins incubation by fluorescence analysis; type: functional, cell-based
Sequence of Melanocortin receptor 4 (P32245 whole entry): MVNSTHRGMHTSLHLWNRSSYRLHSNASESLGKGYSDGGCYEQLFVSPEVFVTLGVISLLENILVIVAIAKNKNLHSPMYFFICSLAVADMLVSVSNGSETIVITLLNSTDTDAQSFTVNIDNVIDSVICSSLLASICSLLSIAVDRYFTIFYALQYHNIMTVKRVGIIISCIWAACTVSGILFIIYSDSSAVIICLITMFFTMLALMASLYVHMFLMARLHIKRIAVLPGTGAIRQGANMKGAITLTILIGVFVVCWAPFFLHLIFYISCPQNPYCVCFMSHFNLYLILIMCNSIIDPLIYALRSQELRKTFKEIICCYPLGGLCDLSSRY

Melanocortin receptor 5 = Melanocortin receptor 5 (Homo sapiens, UniProt P33032); test: Antagonist activity at human MC5 receptor expressed in HEK293 cells assessed as inhibition of ACTH-induced cAMP accumulation measured after 70 mins incubation by fluorescence analysis; type: functional, cell-based
Sequence of Melanocortin receptor 5 (P33032 whole entry): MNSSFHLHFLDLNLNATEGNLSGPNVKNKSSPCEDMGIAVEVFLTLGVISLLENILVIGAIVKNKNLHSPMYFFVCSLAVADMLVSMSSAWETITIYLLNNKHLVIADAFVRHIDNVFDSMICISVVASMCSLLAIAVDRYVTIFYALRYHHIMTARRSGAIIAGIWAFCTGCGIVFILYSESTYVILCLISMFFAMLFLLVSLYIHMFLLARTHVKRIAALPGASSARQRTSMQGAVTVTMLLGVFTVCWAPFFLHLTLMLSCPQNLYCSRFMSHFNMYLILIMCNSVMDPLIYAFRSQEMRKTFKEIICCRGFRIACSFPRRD

Row | SMILES | EC50 [1] | EC50 (Melanocortin receptor 3) | EC50 (Melanocortin receptor 4) | EC50 (Melanocortin receptor 5)
1 | O=C1NCCOc2ccc(CNCC3(c4ccc(C=C5CCSCC5)s4)CCC3)cc21 | 11 µM | 33 µM | 32 µM | 31 µM
2 | COc1cc(C)c(-c2c(C)c(C)c(C(=O)NCC3CCCN3CCCO)c(C)c2C)cc1C (stereo not given) |  | 156 µM |  | 150 µM
3 | O=C(NCC(F)F)C(C1CC2(C1)CC21CCC1)N(C(=O)c1cc2c(cn1)CCCC2)[C@H]1C[C@@H](N2CCCC2)C1 (stereo not given in full) | 38 µM | 50 µM | 36 µM | 102 µM
4 | CC1CC(N2CCCC2)CN1C(=O)c1cc(O)cc(-c2cc(Cl)ccc2F)c1 (stereo not given) | 6.7 µM | 94 µM | 425 µM | 154 µM
5 | CCc1ccc(-c2cc(CNC3CCN(c4ccccc4C(N)=O)C3)c(OC)cc2F)s1 (stereo not given) |  | 33 µM |  | 
6 | COc1ccc(C(CN(C)C)NC(=O)COc2ccc(-c3cccc4c3OCC4)cc2Cl)cc1 (stereo not given) | 4.1 µM | 37 µM | 31 µM | 13 µM
7 | Cc1ccc(-c2cc(Cl)cs2)cc1C1(C(=O)NC2CN(C3CCC3)C2)CC1 |  |  |  | 16 µM
8 | COCCNC(=O)C(C1CC2(C1)CC21CCC1)N(C(=O)c1cn(C)cn1)C1CCCN(c2cccc(C)c2)C1 (stereo not given) | 7 µM | 32 µM | 33 µM | 72 µM
9 | CCCN1CC(NC(=O)[C@@H]2C[C@H]2c2cccc(-c3cc(Cl)ccc3OC)c2Cl)C1 |  | 19 µM |  | 
